This note sets out measurements from ChEMBL document CHEMBL4673302, “Efficient synthesis and antitumor evaluation of 4-aminomethyl-N-arylpyrazoles: Discovery of potent and selective agents for ovarian cancer” (Bioorg Med Chem, 2021).

As a reminder, the GI50 is the concentration that inhibits growth by half.

Data set [1] in a line: Cytotoxicity against human HaCaT cells assessed as cell growth inhibition measured after 48 hrs by sulforhodamine B assay. It counts as cell-based. The following applies: HaCaT cells.
The test system of a further data set is K562. In words: Anticancer activity against human K562 cells assessed as cell growth inhibition measured after 48 hrs by sulforhodamine B assay. In kind it is functional. The following applies: Homo sapiens, K562, 48 h. For orientation: In SRB staining, fixed cells bind dye roughly in proportion to their protein.
The test system of another data set is PC-3. In words: Anticancer activity against human PC-3 cells assessed as cell growth inhibition measured after 48 hrs by sulforhodamine B assay. It counts as functional. The following applies: Homo sapiens, PC-3, 48 h.
The next data set deals with HT-29. Briefly: Anticancer activity against human HT-29 cells assessed as cell growth inhibition measured after 48 hrs by sulforhodamine B assay. In kind it is functional. As to conditions: Homo sapiens, HT-29, 48 h.
In another data set the test system is U-251. Briefly: Anticancer activity against human U-251 cells assessed as cell growth inhibition measured after 48 hrs by sulforhodamine B assay. As to conditions: Homo sapiens, U-251, 48 h. It counts as functional.
The next data set relates to 786-0. In words: Anticancer activity against human 786-0 cells assessed as cell growth inhibition measured after 48 hrs by sulforhodamine B assay. It counts as functional. As to conditions: Homo sapiens, 786-0, 48 h.
In a further data set the test system is OVCAR-3. In words: Anticancer activity against human OVCAR-3 cells assessed as cell growth inhibition measured after 48 hrs by sulforhodamine B assay. It counts as functional. The following applies: Homo sapiens, OVCAR-3, 48 h.
The next data set relates to NCI-H460. Briefly: Anticancer activity against human NCI-H460 cells assessed as cell growth inhibition measured after 48 hrs by sulforhodamine B assay. It counts as functional. As to conditions: Homo sapiens, NCI-H460, 48 h.
The subject of a further data set is MCF7. Briefly: Anticancer activity against human MCF7 cells assessed as cell growth inhibition measured after 48 hrs by sulforhodamine B assay. It counts as functional. The following applies: Homo sapiens, MCF7, 48 h.

Turning to `CC(C)(C)NCc1c(C(=O)O)nn(-c2ccc(Cl)cc2)c1-c1ccc([N+](=O)[O-])cc1`, in [1], the GI50 at 48 h was more than 584 µM. The GI50 in the data set with K562 is 158 µM; with PC-3, more than 584 µM; with HT-29 it was more than 584 µM; in the data set on U-251, more than 584 µM; in the data set with 786-0 it was 104 µM; in the data set on OVCAR-3, 162 µM. Further, the GI50 is 141 µM with NCI-H460 and 550 µM in the data set with MCF7.

`COc1ccc(-c2c(CNC(C)(C)C)c(C(=O)O)nn2-c2ccc(Cl)cc2)cc1`: the concentration for 50% growth inhibition (GI50) at 48 h in data set [1] was determined as 121 µM. Further, the 50% growth inhibitory concentration (GI50) is more than 605 µM with K562; more than 605 µM in the data set on PC-3; more than 605 µM with HT-29; 498 µM in the data set with U-251; more than 605 µM in the data set on 786-0; 121 µM in the data set with OVCAR-3. Moreover, the GI50 in the data set on NCI-H460 was more than 605 µM; in the data set on MCF7, 220 µM.

Take `Cc1ccc(-c2c(CNC(C)(C)C)c(C(=O)O)nn2-c2ccc(Cl)cc2)cc1`: in data set [1], the concentration for 50% growth inhibition (GI50) at 48 h was more than 630 µM. Also, the GI50 in the data set on K562, in the data set on PC-3, with HT-29, with U-251, with 786-0 and in the data set with OVCAR-3 was more than 630 µM throughout. The GI50 in the data set on NCI-H460 and with MCF7 was more than 630 µM throughout.

With `CC(C)(C)NCc1c(C(=O)O)nn(-c2ccc(Cl)cc2)c1-c1ccccc1`, in data set [1], the GI50 at 48 h was determined as 175 µM. The GI50 in the data set on K562 is more than 652 µM; in the data set on PC-3 it was more than 652 µM; in the data set with HT-29, more than 652 µM; in the data set with U-251, more than 652 µM; in the data set with 786-0, more than 652 µM; with OVCAR-3, 652 µM. Further, the 50% growth inhibitory concentration (GI50) is more than 652 µM in the data set on NCI-H460 and 496 µM in the data set with MCF7.
